Here are results for eight molecules from ChEMBL document CHEMBL1137247, “Derivatives of 7-amino-1,2,3,4-tetrahydroisoquinoline and isophthalic acids as novel fibrinogen receptor antagonists” (Bioorg Med Chem Lett, 2006).

The target of test [1] is Integrin alpha-IIb/beta-3 (Homo sapiens). Kind of test: Displacement of FITC-Fg from integrin alphaIIbbeta3 receptor expressed in human activated platelets.
The subject of test [2] is Plasma. Briefly: Inhibition of ADP-induced platelet aggregation in human platelet-rich plasma by Born's method.

One may read the IC50 as the point on the concentration scale where inhibition reaches its midpoint. A low value points to higher potency. On to `O=C(O)CCNC(=O)c1cccc(C(=O)Nc2ccc3c(c2)CNCC3)c1`, for which the IC50 stood at 9 nM in test [1] and 78 nM in test [2].

Regarding `O=C(O)CC(NC(=O)c1cc(C(=O)Nc2ccc3c(c2)CNCC3)cc([N+](=O)[O-])c1)c1ccccc1` (stereo unspecified), the IC50 in test [1] amounted to 8 nM; in test [2], 710 nM.

For the molecule `COc1ccc(C(CC(=O)O)NC(=O)c2cc(C(=O)Nc3ccc4c(c3)CNCC4)cc([N+](=O)[O-])c2)cc1` (stereo unspecified), the IC50 was determined as 5 nM in test [1] and 450 nM in test [2].

Regarding `COc1ccc(C(CC(=O)O)NC(=O)c2cc(C(=O)Nc3ccc4c(c3)CNCC4)cc([N+](=O)[O-])c2)cc1OC` (stereo unspecified), the IC50 worked out at 3.7 nM in test [1] and 340 nM in test [2].

As to `COc1ccc(C(CC(=O)O)NC(=O)c2cccc(C(=O)Nc3ccc4c(c3)CNCC4)c2)cc1` (stereo unspecified), the results for the IC50 in test [1] and in test [2] were 0.8 nM and 17 nM, respectively.

As for `O=C(O)CCNC(=O)c1cc(C(=O)Nc2ccc3c(c2)CNCC3)cc([N+](=O)[O-])c1`, the results for the IC50 in test [1] and in test [2] were 32 nM and 2300 nM, respectively.

Take `O=C(O)CC(NC(=O)c1cccc(C(=O)Nc2ccc3c(c2)CNCC3)c1)c1ccccc1` (stereo unspecified): the IC50 was found to be 1 nM in test [1] and 25 nM in test [2].

`COc1ccc(C(CC(=O)O)NC(=O)c2cccc(C(=O)Nc3ccc4c(c3)CNCC4)c2)cc1OC` (stereo unspecified): the IC50 in test [1] is 0.7 nM; in test [2], 11.6 nM.
